Like-named read-outs stand apart in the source and are kept apart here. Marks after values point to notes of the source that are not given here.
Experiments:
[1] = target: T1, membrane fusion caused by SNARE (SNAP25, syntaxin 1A, VAMP2) (UniProt P60879+P63045+Q16623); experiment: Membrane fusion assay with SNARE-reconstituted liposomes (fluorescence); format: biochemical; details: for remaining activity at 20 µM: read-out: Membrane fusion caused by SNARE (% of fusion without inhibitor); for Reduction of membrane fusion (in words): FIG. 3; for Ratio for inhibition by 50% (IR50), membrane fusion: molar concentration ratio phenolic compound:SNAP-25, average of at least three measurements
T1 construct: made in house; host or cells: E. coli (Codon (+) RIL, Novagen)
Experimental: In order to produce SNARE proteins, SNARE proteins, such as SNAP25 (NM011428), syntaxin 1A (AF217197), and VAMP2 (NM012663), were purified in biologically transformed E. coli (Codon (+) RIL, Novagen).
In order to prepare liposome (fine membrane) marked with a fluorescent substance, POPC (62 mol %), DOPS (35 mol %), NBD-PS (1.5 mol %) and a fluorescent substance Rhodamin-PE (1.5 mol %) were mixed to obtain 10 mM of liposome (v-vesicle). Also, in order to prepare a liposome not marked with a fluorescent substance, DOPS and POPC were mixed in a molar concentration ratio of 35:65 to obtain 50 mM of liposome (t-vesicle). In order to prepare a complex of the purified SNAP25 and syntaxin 1a, the SNAP25 and the syntaxin 1a were mixed in a molar concentration ratio of 1:1, and then were reacted at room temperature for 1 hour. Then, the resultant mixture and the liposome not marked with a fluorescent substance were mixed in a molar ratio of 100:1. The VAMP2 and the liposome marked with a fluorescent substance were mixed in a molar ratio of 50:1. Then, each of the two kinds of liposomes was dialyzed by using 10 kDa dialyzing membrane through agitation at 4° C. for 24 hours, and the liposomes were mixed in a ratio of 3:7 (v-vesicle t-visicle). Next, fluorescence was measured by using a fluorometer (SpectraMax M2 manufactured by Molecular Device).
Herein, 100% indicates the degree of membrane fusion in the state where no inhibitor was added. As the value is smaller, the inhibiting degree is higher.

PC12 cell = experiment: Inhibition of [3H]-norepinephrine release from PC12 cells; format: cell-based; details: normal PC12 cells, FIG. 4
Experimental: PC12 cells were cultured in a Ham's F12K medium where 10% […], 5% fetal bovine serum, and antibiotics were added in a collagen-coated plate (60 mm dish). In subculture, after sucking of the medium, 2 ml of PBS was added and cells were separated from a dish wall through pipetting. Then, centrifugation with 1,000×g for 5 minutes was carried out to obtain cells. A new medium was introduced, and a cell pellet was dispersed through pipetting and was loaded onto a new culture plate. And culture was carried out at 37° C. in a culture medium providing 5% CO2 gas. [^3H]-norepinephrine used for the experiment was purchased from Amersham. After sucking of the medium in the plate of PC12 cells, PBS was added and cells were separated from a plate wall. Then, the number of cells was measured by a hemacytometer, and the cells were dispersedly inoculated into a new medium at a concentration of 2×10^5 cell/ml. After 24 hours, a buffer solution ([^3H]—NE, 1.5 μCi/ml) for assay of norepinephrine was added, and then the cells were induced in a carbon dioxide incubator for 90 minutes. After the reaction, the buffer solution was removed and the cells were washed three times with PBS. Then, a new medium and each polyphenol compound were loaded and a reaction was performed for 30 minute. […]

[2] = target: T2, SNARE complex (SNAP25, SynH3, Vps) (UniProt P60879+P63045+Q16623); experiment: SDS-PAGE analysis of SNARE complex formation; format: biochemical; details: for Inhibition of SNARE complex formation (in words): FIG. 2, concentration series; for SNARE complex formation (%): control = 100, footnote: [phenolic compound]:SNAP-25 = 1:1, SNARE proteins 10 μM each, polyphenol 100 μM, room temperature 30 min; for Ratio for inhibition by 50% (IR50), SNARE complex formation: molar concentration ratio phenolic compound:SNAP-25, average of at least three measurements
T2 construct: SynH3 (AF217197); Vps (NM012663); made in house; host or cells: E. coli (Codon (+) RIL, Novagen)
Experimental: A SNARE complex is strong enough so as not to be untwisted by SDS. On the basis of such a property, a SDS-PAGE analysis was performed in order to determine the formation of a SNARE complex. Polyphenol compounds used in the present Example were purchased from Sigma-Aldrich, Wako Chemical, and Extrasynthese.
In order to produce SNARE proteins, SNARE proteins, such as, SNAP25 (NM011428), syntaxin 1A (AF217197), VAMP2 (NM012663), SynH3 (AF217197), and Vps (NM012663), were purified in biologically transformed E. coli (Codon (+) RIL, Novagen).
Then, the materials were quickly mixed by a vortex, and were reacted at room temperature for 30 minutes. […]

[3] = 20 μM phenolic compound, 100% = no inhibitor added

T1 sequence (P60879 whole entry, the tested form may be a part): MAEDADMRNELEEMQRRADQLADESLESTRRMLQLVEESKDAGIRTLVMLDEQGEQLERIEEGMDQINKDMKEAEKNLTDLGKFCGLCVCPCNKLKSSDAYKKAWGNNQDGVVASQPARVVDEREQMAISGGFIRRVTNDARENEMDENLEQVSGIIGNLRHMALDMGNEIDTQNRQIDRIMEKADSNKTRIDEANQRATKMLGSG
T1 sequence (Q16623 whole entry, the tested form may be a part): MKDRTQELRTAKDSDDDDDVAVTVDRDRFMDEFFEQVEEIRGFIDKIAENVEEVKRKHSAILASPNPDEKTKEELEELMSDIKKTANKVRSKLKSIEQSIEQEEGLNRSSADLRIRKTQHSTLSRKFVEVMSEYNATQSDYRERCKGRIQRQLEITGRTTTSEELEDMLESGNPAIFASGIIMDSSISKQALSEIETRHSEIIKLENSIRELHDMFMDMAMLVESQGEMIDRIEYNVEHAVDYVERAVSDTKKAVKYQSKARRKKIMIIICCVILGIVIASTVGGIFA
T1 sequence (P63045 whole entry, the tested form may be a part): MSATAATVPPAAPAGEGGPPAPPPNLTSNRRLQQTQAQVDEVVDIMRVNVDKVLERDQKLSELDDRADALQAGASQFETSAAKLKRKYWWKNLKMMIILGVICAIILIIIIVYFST
T2 sequence (P60879 whole entry): as the sequence (P60879 whole entry, the tested form may be a part) above
T2 sequence (Q16623 192-254 limits assumed): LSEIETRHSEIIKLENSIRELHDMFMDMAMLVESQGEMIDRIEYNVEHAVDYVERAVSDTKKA
T2 sequence (P63045 2-94 limits assumed): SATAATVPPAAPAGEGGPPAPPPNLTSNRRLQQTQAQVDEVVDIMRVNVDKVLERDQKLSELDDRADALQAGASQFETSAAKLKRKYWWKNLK

| Compound | remaining activity at 20 µM [1, 3] [%] | SNARE complex formation (%) [2] [%] | other results |
| --- | --- | --- | --- |
| O=C(/C=C/c1ccc(O)c(O)c1)c1ccc(O)cc1O [Butein] | 16.9 ± 2.98 | 88.45 ± 7.09 | Reduction of membrane fusion (in words) [1]: can reduce membrane fusion; Ratio for inhibition by 50% (IR50), membrane fusion [1]: 0.81; Norepinephrine release inhibiting effect (in words) (PC12 cell): relatively high norepinephrine release inhibiting effects; Inhibition of SNARE complex formation (in words) [2]: inhibit the formation of a SNARE complex by 50% at a low concentration; Ratio for inhibition by 50% (IR50), SNARE complex formation [2]: 30.5 |
| COc1cc2c(c(OC)c1OC)-c1c(cc3c(c1OC)OCO3)C[C@H](C)[C@](C)(O)C2 [Gomisin A] | – | 97.99 ± 0.87 | Membrane fusion caused by SNARE (% of fusion without inhibitor) [1, 3]: 79.63 ± 7.58% |
| COc1ccc([C@@H]2CC(=O)c3c(O)cc(O)cc3O2)cc1O [Hesperetin] | 107 ± 2.29 | 114.55 ± 5.00 | – |
| COc1ccc([C@@H]2CC(=O)c3c(O)cc(O[C@@H]4O[C@H](CO[C@@H]5O[C@@H](C)[C@H](O)[C@@H](O)[C@H]5O)[C@@H](O)[C@H](O)[C@H]4O)cc3O2)cc1O [Hesperidin] | – | 112.38 ± 10.43 | Membrane fusion caused by SNARE (% of fusion without inhibitor) [1, 3]: 124.11 ± 15.01% |
| O=c1c(O)c(-c2ccc(O)cc2)oc2cc(O)cc(O)c12 [Kaempferol] | 108 ± 5 | 100.13 ± 7.16 | Reduction of membrane fusion (in words) [1]: can reduce membrane fusion; Ratio for inhibition by 50% (IR50), membrane fusion [1]: >20^b; Inhibition of SNARE complex formation (in words) [2]: inhibit the formation of a SNARE complex by 50% at a low concentration; Ratio for inhibition by 50% (IR50), SNARE complex formation [2]: >60^b |
| O=c1cc(-c2ccc(O)c(O)c2)oc2cc(O)cc(O)c12 [Luteolin] | 65.5 ± 2.09 | 86.23 ± 8.14 | Reduction of membrane fusion (in words) [1]: can reduce membrane fusion; Ratio for inhibition by 50% (IR50), membrane fusion [1]: 4.02; Ratio for inhibition by 50% (IR50), SNARE complex formation [2]: 38.2 |
| COc1cc(-c2[o+]c3cc(O)cc(O)c3cc2O)cc(OC)c1O [Malvidin] | – | 97.42 ± 6.31 | remaining activity at 20 µM [1]: 116 ± 5.97% |
| O=c1c(O)c(-c2cc(O)c(O)c(O)c2)oc2cc(O)cc(O)c12 [Myricetin] | 43.9 ± 8.38 | 72.13 ± 10.13 | Reduction of membrane fusion (in words) [1]: can reduce membrane fusion; Ratio for inhibition by 50% (IR50), membrane fusion [1]: 0.79; Norepinephrine release inhibiting effect (in words) (PC12 cell): relatively high norepinephrine release inhibiting effects; Inhibition of SNARE complex formation (in words) [2]: inhibit the formation of a SNARE complex by 50% at a low concentration; Ratio for inhibition by 50% (IR50), SNARE complex formation [2]: 14.9 |
| C[C@@H]1O[C@@H](O[C@H]2[C@H](Oc3cc(O)c4c(c3)O[C@H](c3ccc(O)cc3)CC4=O)O[C@H](CO)[C@@H](O)[C@@H]2O)[C@H](O)[C@H](O)[C@H]1O [Naringin] | 107 ± 2.89 | 105.02 ± 11.37 | – |
| Oc1ccc(-c2[o+]c3cc(O)cc(O)c3cc2O)cc1 [Pelargonidin] | 92.4 ± 3.38 | 95.61 ± 3.10 | – |
| O=C(CCc1ccc(O)cc1)c1c(O)cc(O)cc1O[C@@H]1O[C@H](CO)[C@@H](O)[C@H](O)[C@H]1O [Phloridzin] | 86.3 ± 3.87 | 115.19 ± 23.74 | – |
| O=C(O)c1ccc(O)c(O)c1 [Protocatechuic acid] | 104 ± 8.19 | 98.38 ± 4.56 | – |
| O=c1c(O)c(-c2ccc(O)c(O)c2)oc2cc(O)cc(O)c12 [Quercetin] | 33.4 ± 2.24 | 79.80 ± 10.77 | Reduction of membrane fusion (in words) [1]: can reduce membrane fusion; Ratio for inhibition by 50% (IR50), membrane fusion [1]: 2.87; Inhibition of SNARE complex formation (in words) [2]: inhibit the formation of a SNARE complex by 50% at a low concentration; Ratio for inhibition by 50% (IR50), SNARE complex formation [2]: 24.9 |
| C[C@@H]1O[C@@H](Oc2c(-c3ccc(O)c(O)c3)oc3cc(O)cc(O)c3c2=O)[C@H](O)[C@H](O)[C@H]1O [Quercitrin] | 86 ± 26.1 | 92.18 ± 9.59 | – |
| C[C@@H]1O[C@@H](OC[C@H]2O[C@@H](Oc3c(-c4ccc(O)c(O)c4)oc4cc(O)cc(O)c4c3=O)[C@H](O)[C@@H](O)[C@@H]2O)[C@H](O)[C@H](O)[C@H]1O [Rutin] | 96.7 ± 10.6 | 92.86 ± 9.53 | – |
| COc1cc2c(c(OC)c1OC)-c1c(cc(OC)c(OC)c1OC)C[C@](C)(O)[C@@H](C)C2 [Schizandrin] | 116 ± 5.52 | 107.60 ± 13.30 | – |
| COc1cc(C(=O)O)cc(OC)c1O [Syringic acid] | 78.2 ± 2.47 | 92.25 ± 5.92 | – |
| O=C(O)/C=C/c1ccccc1 [Trans-cinnamic acid] | 108 ± 10.6 | 106.78 ± 30.15 | – |
| COc1cc(C(=O)O)ccc1O [Vanillic acid] | 99.6 ± 7.63 | 97.23 ± 5.70 | – |
| O=C(O)/C=C/c1ccc(O)cc1 [p-Coumaric acid] | 123 ± 14.3 | 91.21 ± 11.99 | – |

From patent US8263643B2, “Polyphenol compounds with modulating neurotransmitter release” (Sungkyunkwan University Foundation for Corporate …, priority 2007, dated 2012)
